Earlier results in patent US20230285286A1, “DRUG VEHICLE COMPOSITIONS AND METHODS OF USE THEREOF” (PS Therapy, Inc., priority 2016, published 2023).
Where a name gives a salt, the structure may show the parent alone.

Experiments:
[1] = deionized water at 25° C.

Compound | LogP Value | Solubility in Water (PPM) [1]
CN1CCC(=C2c3ccccc3CCn3c(C=O)cnc32)CC1 [Alcaftadine] | 3.2 | 17 PPM
CN1CCCC(n2nc(Cc3ccc(Cl)cc3)c3ccccc3c2=O)CC1 (centres unmarked) [Azelastine HCl] | 3.81 | 35 PPM
CC[C@H]1OC(=O)[C@H](C)[C@@H](O[C@H]2C[C@@](C)(OC)[C@@H](O)[C@H](C)O2)[C@H](C)[C@@H](O[C@@H]2O[C@H](C)C[C@H](N(C)C)[C@H]2O)[C@](C)(O)C[C@@H](C)CN(C)[C@H](C)[C@@H](O)[C@]1(C)O [Azithromycin] | 3.03 | 2.37 PPM
O=C(O)CCCN1CCC(O[C@@H](c2ccc(Cl)cc2)c2ccccn2)CC1.O=S(=O)(O)c1ccccc1 [Bepotastine Besilate] |  | 50 PPM
N[C@@H]1CCCCN(c2c(F)cc3c(=O)c(C(=O)O)cn(C4CC4)c3c2Cl)C1 [Besifloxacin] | 0.54 | 0 PPM
CC(C)NCC(O)COc1ccc(CCOCC2CC2)cc1 (centres unmarked) [Betaxolol HCl] | 3 | 17190 PPM
CCNC(=O)CCC/C=C\C[C@@H]1[C@@H](/C=C/[C@@H](O)CCc2ccccc2)[C@H](O)C[C@@H]1O [Bimatoprost] | 3.2 | 19 PPM
Brc1c(NC2=NCCN2)ccc2nccnc12 [Brimonidine] |  | 150 PPM
CCN[C@H]1CN(CCCOC)S(=O)(=O)c2sc(S(N)(=O)=O)cc21 [Brinzolamide] | -1.8 | 713 PPM
Nc1c(CC(=O)O)cccc1C(=O)c1ccc(Br)cc1 [Bromfenac] | 3.4 | 12 PPM
O=C(O)c1cc(=O)c2c(OCC(O)COc3cccc4oc(C(=O)O)cc(=O)c34)cccc2o1 [Cromolyn Sodium] | 4.8 | 100000 PPM
CCCC(=O)O[C@]1(C(=O)COC(C)=O)CC[C@H]2[C@@H]3C[C@H](F)C4=CC(=O)C=C[C@]4(C)[C@@]3(F)[C@@H](O)C[C@@]21C [Difluprednate] | 3.28 | 1 PPM
CCN[C@H]1C[C@H](C)S(=O)(=O)c2sc(S(N)(=O)=O)cc21 [Dorzolamide] | -1 | 699 PPM
CCOCCn1c(N2CCCN(C)CC2)nc2ccccc21 [Emedastine Difumarate] | 2.6 | 1440 PPM
NC1=NCC2c3ccccc3Cc3ccccc3N12 (centres unmarked) [Epinastine HCl] | 2.34 | 
CC[C@H]1OC(=O)[C@H](C)[C@@H](O[C@H]2C[C@@](C)(OC)[C@@H](O)[C@H](C)O2)[C@H](C)[C@@H](O[C@@H]2O[C@H](C)C[C@H](N(C)C)[C@H]2O)[C@](C)(O)C[C@@H](C)C(=O)[C@H](C)[C@@H](O)[C@]1(C)O [Erythromycin] | 2.6 | 2000 PPM
CC(=O)O[C@]1(C(C)=O)CC[C@H]2[C@@H]3C[C@H](C)C4=CC(=O)C=C[C@]4(C)[C@@]3(F)[C@@H](O)C[C@@]21C [Fluorometholone Acetate] |  | 6.27 PPM
CC(C(=O)O)c1ccc(-c2ccccc2)c(F)c1 (centres unmarked) [Flurbiprofen] |  | 5 PPM
CC(C)Cc1ccc(C(C)C(=O)O)cc1 (centres unmarked) [Ibuprofen] |  | 21 PPM
O=C(c1ccccc1)c1ccc2n1CCC2C(=O)O (centres unmarked) [Ketorolac Tromethamine] | -0.92 | 861 PPM

Compound | LogP Value | Solubility in Water (PPM) [1]
CN1CCC(=C2c3ccccc3CC(=O)c3sccc32)CC1 [Ketotifen Fumarate] | 3.49 | 7.87 PPM
CC(C)OC(=O)CCC/C=C\C[C@@H]1[C@@H](CC[C@@H](O)CCc2ccccc2)[C@H](O)C[C@@H]1O [Latanoprost] |  | 1.29 PPM
CC(C)(C)NC[C@H](O)COc1cccc2c1CCCC2=O [Levobunolol HCl] |  | 251 PPM
N#Cc1cc(NC(=O)C(=O)O)c(Cl)c(NC(=O)C(=O)O)c1.NC(CO)(CO)CO.NC(CO)(CO)CO [Lodoxamide Tromethamine] | 0.72 | 36.1 PPM
CCOC(=O)O[C@]1(C(=O)OCCl)CC[C@H]2[C@@H]3CCC4=CC(=O)C=C[C@]4(C)[C@H]3[C@@H](O)C[C@@]21C [Loteprednol Etabonate] | 3.4 | 0.5 PPM
COc1c(N2C[C@@H]3CCCN[C@@H]3C2)c(F)cc2c(=O)c(C(=O)O)cn(C3CC3)c12 [Moxifloxacin] |  | 1146 PPM
CCCc1c2oc(C(=O)O)cc(=O)c2cc2c(=O)cc(C(=O)O)n(CC)c12 [Nedocromil Sodium] | 2.82 | 80.8 PPM
NC(=O)Cc1cccc(C(=O)c2ccccc2)c1N [Nepafenac] | 1.53 | 14 PPM
CN(C)CC/C=C1/c2ccccc2COc2ccc(CC(=O)O)cc21 [Olopatadine HCl] | 3.4 | 31.3 PPM
CC(=O)OCC(=O)[C@@]1(O)CC[C@H]2[C@@H]3CCC4=CC(=O)C=C[C@]4(C)[C@H]3[C@@H](O)C[C@@]21C [Prednisolone Acetate] | 1.332 | 
CCC(=O)[C@@]1(C)[C@H](C)C[C@H]2[C@@H]3CCC4=CC(=O)C=C[C@]4(C)[C@H]3[C@@H](O)C[C@@]21C [Rimexolone] | 4.2 | 0 PPM
C=CC[C@@H]1/C=C(\C)C[C@H](C)C[C@H](OC)[C@H]2O[C@@](O)(C(=O)C(=O)N3CCCC[C@H]3C(=O)O[C@H](/C(C)=C/[C@@H]3CC[C@@H](O)[C@H](OC)C3)[C@H](C)[C@@H](O)CC1=O)[C@H](C)C[C@@H]2OC [Tacrolimus] | 5.59 | 12 PPM
CC(C)OC(=O)CCC/C=C\C[C@@H]1[C@@H](/C=C/C(F)(F)COc2ccccc2)[C@H](O)C[C@@H]1O [Tafluprost] | 4.05 | 0 PPM
CC(C)(C)NC[C@H](O)COc1nsnc1N1CCOCC1 [Timolol Maleate] |  | 5000 PPM
NC[C@H]1O[C@H](O[C@H]2[C@H](O)[C@@H](O[C@H]3O[C@H](CO)[C@@H](O)[C@H](N)[C@H]3O)[C@H](N)C[C@@H]2N)[C@H](N)C[C@@H]1O [Tobramycin] | -5.8 | 10000 PPM
CC(C)OC(=O)CCC/C=C\C[C@@H]1[C@@H](/C=C/[C@@H](O)COc2cccc(C(F)(F)F)c2)[C@H](O)C[C@@H]1O [Travoprost] | 4.6 | 16000 PPM
COc1cc(Cc2cnc(N)nc2N)cc(OC)c1OC [Trimethoprim] |  | 999 PPM
Gentamicin | -3.1 | 
Gramicidin |  | 6 PPM
Polymyxin B |  | 0 PPM
